Reference: PubChem BioAssay AID789 (SRMLSC, 2007)
The source made the active and inactive calls. The rule behind the calls is not given here.

Assays:
[1] = growth inhibition of apl2Δ yeast, dose response, selectivity assay for post-Golgi transport modulator project, S. cerevisiae, secondary screen, background strain comparison (AID 789); settings: S. cerevisiae background (wild-type parent) strain growth inhibition
[2] = system: S. cerevisiae apl2Δ mutant growth inhibition; test: as above

Compound	IC50 [1] [µM]	IC50 [2]
O=[N+]([O-])c1ccc(N/N=C/c2c[nH]c3ccccc23)c(S(=O)(=O)Nc2ccc(Cl)cc2)c1	2.5	7.17 µM (inactive)
Cc1ccc(C2(C(F)(F)F)N=C3Sc4cc(C)cc(C)c4N3C(=O)N2)cc1 (stereo not drawn)	1.08	1.73 µM (inactive)
O=Cc1cc2ccccc2nc1SCc1ccc(Cl)cc1	> 10	> 10 µM (inactive)
CSc1ncccc1C(=O)OCC(=O)N1CCOCC1	> 10	> 10 µM (inactive)
CCCC(=O)Nc1ccc(Cl)c(NC(=O)c2cccnc2Cl)c1	> 10	> 10 µM (inactive)
CCn1c(-c2c[nH]c3ccccc23)n[nH]c1=S	> 10	> 10 µM (inactive)
COc1ccc(C(=O)c2c(C(F)(F)F)oc3c2C(=O)c2ccccc2C3=O)cc1	2.32	> 10 µM (inactive)
Clc1ccc(-c2n[nH]c3c2CCC3)cc1Cl	1.81	2.74 µM (inactive)
CC(C)OC(=O)CSc1nnc(-c2ccc(Cl)cc2)n1N	> 10	> 10 µM (inactive)
CCCn1nc([N+](=O)[O-])c(C(C#N)c2nc3ccccc3s2)c(Cl)c1=O (stereo not drawn)	2.16	13.7 µM (inactive)
Cc1nnc(-c2cccc(Br)c2)c2cn(-c3ccccc3Cl)nc12	25.9	> 10 µM (inactive)
Cc1ccc2cc(CN(CCO)Cc3nnnn3Cc3ccc(F)cc3)c(=O)[nH]c2c1	> 10	> 10 µM (inactive)
CCC(=O)N(CCO)Cc1cc2ccc(C)c(C)c2[nH]c1=O	> 10	> 10 µM (inactive)
O=C(COc1ccc(Cl)cc1Cl)N1CCN(C/C=C/c2ccccc2)CC1	7.14	4.89 µM
Cc1ccc(SC(C)C(=O)Nc2ncn[nH]2)cc1 (stereo not drawn)	> 10	> 10 µM (inactive)
CCc1cc2c(=O)c(Oc3ccccc3F)c(C)oc2c(CN(C)C)c1O	> 10	> 10 µM (inactive)
Cn1c(=O)cc(NCc2ccccc2)[nH]c1=O	> 10	> 10 µM (inactive)
COCCNc1cc(C)nc2c3c(C)cc(C)nc3nn12	> 10	> 10 µM (inactive)
CCCCC1(CCCC)C(=O)NC(=Nc2cccc(C)c2)NC1=O	> 10	> 10 µM (inactive)
CC1=CC(C)(C)Nc2ccc(OC(=O)CN3C(=O)c4cccc5cccc(c45)C3=O)cc21	> 10	> 10 µM (inactive)
CCN1CCN(c2c(Cl)cccc2NC(=O)c2ccc(Br)o2)CC1	> 10	> 10 µM (inactive)
COCCNC(=O)C(c1ccc(F)cc1)N(CC1CCCO1)C(=O)CCC(=O)Nc1ccccn1 (stereo not drawn)	> 10	> 10 µM (inactive)
Cc1ccc(NS(=O)(=O)c2cc(C(=O)N3CCOCC3)ccc2C)cc1	> 10	> 10 µM (inactive)
Cc1cc(C)nc(N/N=C/C(Cl)=C/c2ccccc2)n1	> 10	> 10 µM (inactive)
Cc1nc(NC(=O)c2ccccc2)sc1-c1csc(Nc2ccc(F)cc2)n1	> 10	> 10 µM (inactive)
O=C(c1ccco1)N1CCN=C1SCc1cccnc1	> 10	> 10 µM (inactive)
O=C1CC(N2CCN(c3ccc(Cl)c(Cl)c3)CC2)C(=O)N1 (stereo not drawn)	> 10	> 10 µM (inactive)
Cc1cc(OCC(F)(F)C(F)(F)C(F)(F)C(F)(F)C(F)(F)C(F)F)nc(N)n1	> 10	> 10 µM (inactive)
COc1cccc(OCCCCN2CC(C)OC(C)C2)c1 (stereo not drawn)	> 10	> 10 µM (inactive)
